Assays:
Format in all cases: cell-based
PfCRT^Dd2 [1] = target: T1, PfCRT^Dd2 (Plasmodium falciparum, UniProt Q9N623, A220S/I356T/K76T/M74I/N326S/N75E/Q271E/R371I); experiment: cell-based; conditions: for PfCRT-mediated [3H]CQ transport, trans-stimulation (% PfCRTDd2 control): PfCRTDd2 oocytes, normalised to oocyte type control; for [3H]CQ transport (% PfCRTDd2 control), trans-stimulation, PfCRTDd2: PfCRT-mediated component (background subtracted), mean ± SEM, SEM
How it was run: (§1)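 Oocytes (ten per treatment, ≥4 independent frogs/days) were preloaded by injecting VF-6 in 25 nL ND96 at pH 5.0, 5.5, 6.0 or 7.0, or Na^+-free choline buffer, then uptake run 1.5 h, 27.5 °C, ND96 pH 5.5 by default. Internal concentrations assumed ~400 nL oocyte volume.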

PfCRT^Ecu1110 [2] = target: T2, PfCRT^Ecu1110 (Plasmodium falciparum, UniProt Q9N623, A220S/I356L/K76T/N326D); experiment: cell-based; conditions: for PfCRT-mediated [3H]CQ transport, trans-stimulation (% PfCRTEcu1110 control): PfCRTEcu1110 oocytes, normalised to oocyte type control; for [3H]CQ transport (% PfCRTDd2 control), trans-stimulation, PfCRTEcu1110: PfCRT-mediated component (background subtracted), sheet title says normalised to PfCRTDd2 control, mean ± SEM, SEM
How it was run: as §1

PfCRT^3D7 = PfCRT^3D7 (Plasmodium falciparum, UniProt Q8IBZ9); experiment: cell-based; conditions: PfCRT3D7 oocytes, normalised to oocyte type control
How it was run: as §1

PfCRT^Dd2 [3] = target: T1, PfCRT^Dd2; experiment: [3H]CQ uptake into Xenopus oocytes, cis-inhibition by unlabelled solute; conditions: PfCRTDd2 oocytes, background [3H]CQ accumulation subtracted, normalised to oocyte type control
How it was run: (§2)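 ND96, pH 5.5, 1.5 h, 27.5 °C; uptake direction acidic outside → oocyte cytosol, mimicking efflux from digestive vacuole. Ice-cold wash stop, 10% SDS lysis, scintillation counting. Ten oocytes/treatment, ≥4 independent experiments.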

PfCRT^Ecu1110 [4] = target: T2, PfCRT^Ecu1110; experiment: as above; conditions: for PfCRT-mediated [3H]CQ transport, cis-inhibition (% PfCRTEcu1110 control): PfCRTEcu1110 oocytes, background [3H]CQ accumulation subtracted, normalised to oocyte type control; for [3H]CQ transport (% PfCRTEcu1110 control), cis-inhibition, PfCRTEcu1110: PfCRT-mediated component (background subtracted), sheet title says normalised to PfCRTDd2 control, mean ± SEM, SEM
How it was run: as §2

[5] = [test solute]i = 5 mM (intracellular)
[6] = [test solute]i = 45 mM (intracellular; 30 mM for some solutes due to solubility)
[7] = [test solute]i = 5 mM (injected)
[8] = [test solute]i = 45 mM (30 mM for some solutes due to solubility)

T1 sequence (Q9N623 whole entry A220S/I356T/K76T/M74I/N326S/N75E/Q271E/R371I): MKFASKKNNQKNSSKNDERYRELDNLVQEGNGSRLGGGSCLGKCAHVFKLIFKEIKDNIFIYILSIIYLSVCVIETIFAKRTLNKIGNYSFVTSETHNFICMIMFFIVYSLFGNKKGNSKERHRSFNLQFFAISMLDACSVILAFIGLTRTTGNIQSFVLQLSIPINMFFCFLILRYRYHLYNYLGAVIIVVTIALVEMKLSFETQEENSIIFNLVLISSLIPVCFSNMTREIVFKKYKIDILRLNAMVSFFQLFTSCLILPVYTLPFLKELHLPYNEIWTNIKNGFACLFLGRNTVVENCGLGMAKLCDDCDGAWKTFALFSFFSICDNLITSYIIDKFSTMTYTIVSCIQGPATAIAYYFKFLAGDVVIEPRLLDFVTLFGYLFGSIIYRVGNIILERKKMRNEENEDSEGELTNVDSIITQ
Chain of PfCRT^3D7 (Q8IBZ9 59-398): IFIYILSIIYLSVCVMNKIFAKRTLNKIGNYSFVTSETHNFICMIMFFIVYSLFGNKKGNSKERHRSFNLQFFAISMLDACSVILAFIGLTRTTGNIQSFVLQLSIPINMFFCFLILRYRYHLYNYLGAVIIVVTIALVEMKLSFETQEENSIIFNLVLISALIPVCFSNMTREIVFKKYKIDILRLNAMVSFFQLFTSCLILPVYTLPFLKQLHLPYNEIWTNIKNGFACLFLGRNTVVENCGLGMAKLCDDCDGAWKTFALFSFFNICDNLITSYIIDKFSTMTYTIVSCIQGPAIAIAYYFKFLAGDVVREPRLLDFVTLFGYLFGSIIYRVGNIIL
T2 sequence (Q9N623 whole entry A220S/I356L/K76T/N326D): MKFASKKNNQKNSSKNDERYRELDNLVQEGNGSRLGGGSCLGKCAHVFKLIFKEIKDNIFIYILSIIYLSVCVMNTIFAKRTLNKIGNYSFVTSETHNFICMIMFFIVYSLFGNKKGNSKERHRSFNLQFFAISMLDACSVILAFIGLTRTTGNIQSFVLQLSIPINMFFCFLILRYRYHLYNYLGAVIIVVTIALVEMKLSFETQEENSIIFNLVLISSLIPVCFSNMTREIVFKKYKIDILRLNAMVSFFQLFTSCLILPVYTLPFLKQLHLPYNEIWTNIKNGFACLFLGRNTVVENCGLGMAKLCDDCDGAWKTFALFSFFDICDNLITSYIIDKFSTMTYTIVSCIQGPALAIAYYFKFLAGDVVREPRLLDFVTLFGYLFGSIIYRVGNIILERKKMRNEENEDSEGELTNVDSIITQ

| Substance | PfCRT-mediated [3H]CQ transport, trans-stimulation (% PfCRTDd2 control) (PfCRT^Dd2 [1]; [5]) | PfCRT-mediated [3H]CQ transport, trans-stimulation (% PfCRTDd2 control) (PfCRT^Dd2 [1]; [6]) | [3H]CQ transport (% PfCRTDd2 control), trans-stimulation, PfCRTDd2 (PfCRT^Dd2 [1]; [7]) | [3H]CQ transport (% PfCRTDd2 control), trans-stimulation, PfCRTDd2 (PfCRT^Dd2 [1]; [8]) | PfCRT-mediated [3H]CQ transport, trans-stimulation (% PfCRTEcu1110 control) (PfCRT^Ecu1110 [2]; [5]) | PfCRT-mediated [3H]CQ transport, trans-stimulation (% PfCRTEcu1110 control) (PfCRT^Ecu1110 [2]; [6]) | [3H]CQ transport (% PfCRTDd2 control), trans-stimulation, PfCRTEcu1110 (PfCRT^Ecu1110 [2]; [7]) | [3H]CQ transport (% PfCRTDd2 control), trans-stimulation, PfCRTEcu1110 (PfCRT^Ecu1110 [2]; [8]) | PfCRT-mediated [3H]CQ transport, trans-stimulation (% PfCRT3D7 control) (PfCRT^3D7; [5]) | PfCRT-mediated [3H]CQ transport, trans-stimulation (% PfCRT3D7 control) (PfCRT^3D7; [6]) | PfCRT-mediated [3H]CQ transport, cis-inhibition (% PfCRTDd2 control) (PfCRT^Dd2 [3]; [test solute] = 0.5 mM) | PfCRT-mediated [3H]CQ transport, cis-inhibition (% PfCRTDd2 control) (PfCRT^Dd2 [3]; [test solute] = 1 mM) | PfCRT-mediated [3H]CQ transport, cis-inhibition (% PfCRTDd2 control) (PfCRT^Dd2 [3]; [test solute] = 2 mM) | PfCRT-mediated [3H]CQ transport, cis-inhibition (% PfCRTEcu1110 control) (PfCRT^Ecu1110 [4]; [test solute] = 0.5 mM) | PfCRT-mediated [3H]CQ transport, cis-inhibition (% PfCRTEcu1110 control) (PfCRT^Ecu1110 [4]; [test solute] = 1 mM) | PfCRT-mediated [3H]CQ transport, cis-inhibition (% PfCRTEcu1110 control) (PfCRT^Ecu1110 [4]; [test solute] = 2 mM) | [3H]CQ transport (% PfCRTEcu1110 control), cis-inhibition, PfCRTEcu1110 (PfCRT^Ecu1110 [4]; [test solute] = 2 mM) | [3H]CQ transport (% PfCRTEcu1110 control), cis-inhibition, PfCRTEcu1110 (PfCRT^Ecu1110 [4]; [test solute] = 0.5 mM) | [3H]CQ transport (% PfCRTEcu1110 control), cis-inhibition, PfCRTEcu1110 (PfCRT^Ecu1110 [4]; [test solute] = 1 mM) |
| --- | --- | --- | --- | --- | --- | --- | --- | --- | --- | --- | --- | --- | --- | --- | --- | --- | --- | --- | --- |
| HVDDMP [HP-6] | 103 ± 1.1 % PfCRTDd2 control | 112 ± 1.1 % PfCRTDd2 control | 103 ± 1.1 % PfCRTDd2 control | 112 ± 1.1 % PfCRTDd2 control | 122 ± 4.2 % PfCRTEcu1110 control | 139 ± 3.4 % PfCRTEcu1110 control | 36 ± 1.3 % PfCRTEcu1110 control | 42 ± 1.3 % PfCRTEcu1110 control | 142 ± 3.3 % PfCRT3D7 control | 190 ± 4.3 % PfCRT3D7 control | 22 ± 2.9 % PfCRTDd2 control | 16 ± 1.2 % PfCRTDd2 control | 4.1 ± 0.1 % PfCRTDd2 control | 40 ± 1.0 % PfCRTEcu1110 control | 31 ± 1.6 % PfCRTEcu1110 control | 21 ± 1.6 % PfCRTEcu1110 control | 7.0 ± 0.02 % PfCRTEcu1110 control |  |  |
| HVDDMPN [HN-7] | 100 ± 3.2 % PfCRTDd2 control | 98 ± 3.5 % PfCRTDd2 control | 100 ± 3.2 % PfCRTDd2 control | 98 ± 3.5 % PfCRTDd2 control | 132 ± 4.3 % PfCRTEcu1110 control | 140 ± 4.2 % PfCRTEcu1110 control | 40 ± 2.5 % PfCRTEcu1110 control | 42 ± 2.4 % PfCRTEcu1110 control | 142 ± 4.5 % PfCRT3D7 control | 187 ± 4.5 % PfCRT3D7 control | 37 ± 1.7 % PfCRTDd2 control | 20 ± 0.5 % PfCRTDd2 control | 9.2 ± 1.1 % PfCRTDd2 control | 36 ± 1.6 % PfCRTEcu1110 control | 31 ± 3.5 % PfCRTEcu1110 control | 21 ± 1.3 % PfCRTEcu1110 control | 7.0 ± 0.05 % PfCRTEcu1110 control | 11 ± 0.6 % PfCRTEcu1110 control |  |
| HVDDMPNA [HA-8] | 96 ± 3.1 % PfCRTDd2 control | 96 ± 2.1 % PfCRTDd2 control |  |  | 95 ± 2.2 % PfCRTEcu1110 control | 99 ± 3.8 % PfCRTEcu1110 control |  |  | 99 ± 3.8 % PfCRT3D7 control | 97 ± 4.1 % PfCRT3D7 control | 48 ± 3.1 % PfCRTDd2 control | 27 ± 0.4 % PfCRTDd2 control | 20 ± 1.3 % PfCRTDd2 control | 50 ± 2.1 % PfCRTEcu1110 control | 40 ± 2.5 % PfCRTEcu1110 control | 27 ± 1.4 % PfCRTEcu1110 control |  |  |  |
| HVDPEN [HN-6] | 100 ± 2.1 % PfCRTDd2 control | 113 ± 1.1 % PfCRTDd2 control | 100 ± 2.1 % PfCRTDd2 control | 113 ± 1.1 % PfCRTDd2 control | 117 ± 2.2 % PfCRTEcu1110 control | 136 ± 3.2 % PfCRTEcu1110 control | 35 ± 1.3 % PfCRTEcu1110 control | 41 ± 1.6 % PfCRTEcu1110 control | 148 ± 4.6 % PfCRT3D7 control | 193 ± 4.7 % PfCRT3D7 control | 21 ± 0.7 % PfCRTDd2 control | 15 ± 1.1 % PfCRTDd2 control | 7.3 ± 0.2 % PfCRTDd2 control | 61 ± 1.5 % PfCRTEcu1110 control | 44 ± 3.1 % PfCRTEcu1110 control | 49 ± 2.4 % PfCRTEcu1110 control | 15 ± 0.4 % PfCRTEcu1110 control | 19 ± 0.3 % PfCRTEcu1110 control | 14 ± 0.1 % PfCRTEcu1110 control |

From publication PMC7413254 (Nature Communications, 2020)
